# Measured values reported in patent US11389434B2, “Methods and pharmaceutical compositions for the treatment of mast cell diseases” (INSERM (INSTITUT NATIONAL DE LA SANTE ET DE LA RECHERCHE …, priority 2017, dated 2022).
# Tests used:
# [1] = test system: GLI1 protein; assay: Western blot of GLI1 after stimulation with SMO agonist; format: cell-based; conditions: human MC lines (ROSA KIT WT, KIT D816V), purmorphamine 2 or 5 μM, 12 or 24 hours
# Method: After an overnight starvation of 5 million cells from each kind of cells described above, cells were treated with different doses of chemical agonists (such as purmorfamine) or antagonists (such as Gant61) of HH pathway and for several time-laps. Cells were then collected to extract RNA or proteins to perform gene expression analysis by RT-qPCR or western blot analysis. Hedgehog genes Gli1-2-3, Smo, Patch receptors, SHH-IHH-DHH ligands and the tumor supressor Bcl2 gene were investigated. Hedgehog proteins (Gli1 and Gli3), proteins involved in apoptosis (Bcl2, caspase3, Bcl-xl) and in PI3K/AKT/mTOR pathway were investigated.
# [2] = test system: ROSA KIT K417; assay: Kinetic cell proliferation assay, IncuCyte Live Cell analysis system; format: cell-based, human; conditions: ROSA KIT K417, increasing doses (10 to 50 μM), 144 hours
# [3] = test system: mast cells; assay: Mast cell death by flow cytometry, 7-AAD viability staining; format: cell-based, human
# Method: (§1) The human MCL-derived cell line HMC-1 was kindly provided by Dr. Michel Arock, Paris, France. Two sub-clones were used, namely HMC-1.1 expressing KIT V560G, and HMC-1.2 expressing KIT V560G and KIT D816V.
# (§2) Human primary mast cells, patient's leukemic mast cells and ROSA KIT-WT cell line were cultured in Iscove's modified Dulbecco's Medium (IMDM)-Glutamax® (Invitrogen) supplemented with the penicillin/streptomycin 100 U/ml (P/S) (Invitrogen), 1% of sodium pyruvate (Invitrogen), 1% of vitamins (Invitrogen), 1% of glutamine (Invitrogen), 2% of non-essential amino acids (Invitrogen), 1% of a commercial solution of insulin-transferrin-sodium selenite (Invitrogen), 0.3% of albumin bovine (BSA) in presence of human SCF at 100 ng/ml (Milteny biotech). “ROSA KIT D816V”, “ROSA KIT Delta 417-419 insY” mast cells and HMC-1 lines which have mutated KIT receptor (CD117) grow in the same media described above but in absence of hSCF.
# (§3) Kinetic cell proliferation assays were performed using the IncuCyte® Live Cell analysis system with 10 000 cells/well in triplicate and during one week in presence or absence of chemicals compounds, Gant61, Vismodegib and, individually or in combination, to determine their effect on mast cell proliferation. Compounds were added the first day at different doses and the media was not changed over the 7 days. At the end of the week, mast cells death was investigated by flow cytometry using 7-AAD viability staining solution.
# [4] = test system: ROSA KIT WT; assay: Kinetic cell proliferation assay, IncuCyte Live Cell analysis system; format: cell-based, human; conditions: increasing doses (10 to 50 μM), 144 hours
# Method: as §1, §2, §3
# [5] = test system: ROSA KIT D816V; assay: as above; format: cell-based, human; conditions: increasing doses (10 to 50 μM), 144 hours
# Method: as §1, §2, §3
# [6] = test system: conventional PKC isoforms (α, β, and γ), Syk, FLK1, Akt, PKA, c-Kit, C-Fgr, c-Src, FLT3, PDFRβ, VEGFR1, and VEGFR2; conditions: several serine/threonine and tyrosine kinases; cited from earlier work
# [7] = test system: ROSA WT; assay: Western blot of proteins associated with cell proliferation or apoptosis; format: cell-based, human; conditions: increasing doses
# Method: as §1, §2
# (§4) After an overnight starvation of 5 million cells from each kind of cells described above, cells were treated with different doses of chemical agonists (such as purmorfamine) or antagonists (such as Gant61) of HH pathway and for several time-laps. Cells were then collected to extract RNA or proteins to perform gene expression analysis by RT-qPCR or western blot analysis. […]
# [8] = test system: ROSA D816V; assay: as above; format: cell-based, human; conditions: increasing doses
# Method: as §1, §2, §4
# [9] = test system: leukemic MC; assay: Leukemic mast cell death; format: cell-based, human; conditions: data not shown
# Method: as §1, §2
# as §3, with “At the end of the week, mast cells death was investigated by flow cytometry using 7-AAD viability staining solution.” left out
smiles,measurement,setting,value
c1ccc2c(Oc3nc(Nc4ccc(N5CCOCC5)cc4)c4ncn(C5CCCCC5)c4n3)cccc2c1 [purmorphamine],GLI1 expression,[1],clearly increased
CS(=O)(=O)c1ccc(C(=O)Nc2ccc(Cl)c(-c3ccccn3)c2)c(Cl)c1 [vismodegib],proliferation (percentage of confluence),[2],prevented the proliferation
same,induction of cell death compared with GANT61,"[3]; whatever the cell type, data not shown",much less important
same,proliferation (percentage of confluence),[4],prevented the proliferation
same,proliferation (percentage of confluence),[5],prevented the proliferation
"CO[C@@H]1[C@H](N(C)C(=O)c2ccccc2)C[C@H]2O[C@]1(C)n1c3ccccc3c3c4c(c5c6ccccc6n2c5c31)C(=O)NC4 [PKC 412, N-[(9S,10R,11R,13R)-2,3,10,11,12,13-hexahydro-10-methoxy-9-methyl-1-oxo-9,13-epoxy-1H,9H-diindolo[1,2,3-gh:3′,2′,1′-lm]pyrrolo[3,4-j][1,7]benzodiazonin-11-yl]-N-methyl-benzamide]",IC50,[6],80 to 500 nM
CN(C)c1ccccc1CN1CCCN(Cc2ccccc2N(C)C)C1c1ccncc1 [GANT61],"Expression levels of mTOR, p-AKT, AKT, MYC, Caspase3, BCL2, and BCLX-L proteins",[7],decreased
same,"Expression levels of mTOR, p-AKT, AKT, MYC, Caspase3, BCL2, and BCLX-L proteins",[8],decreased
same,proliferation (percentage of confluence),[2],inhibited
same,mast cells death,[3]; GANT61 5 μM,5%
same,mast cells death,"[3]; GANT61 50 μM, data not shown",more than 90%
same,proliferation (percentage of confluence),[4],inhibited
same,proliferation (percentage of confluence),[5],inhibited
same,leukemic MC death,[9],induced leukemic MC death
